Assay results from ChEMBL document CHEMBL1151056, “The preparation and utilization of paraherquamide-2-O-methyl imidate in the synthesis of 14-O-substituted paraherquamide derivatives” (Bioorg Med Chem Lett, 1992).
In brackets after ≈: the same amount, converted by molar mass.

How the values were obtained:
[1] = tested on: Caenorhabditis elegans; assay: In vitro inhibition against Caenorhabditis elegans motility for anthelmintic activity was measured; assay type: functional, organism-based
[2] = tested on: Ovis aries; assay: Evaluated for the anthelmintic activity against Haemonchus contortus in sheep at dose of 0.5 mg/kg; value ranges from 91-100%; assay type: functional
[3] = tested on: Ovis aries; assay: Evaluated for the anthelmintic activity against Ostertagia circumcincta in sheep at dose of 0.5 mg/kg; value ranges from 91-100%; assay type: functional
[4] = tested on: Ovis aries; assay: Evaluated for the anthelmintic activity against Trichostrongylus colubriformis in sheep at dose of 2 mg/kg; value ranges from 91-100%; assay type: functional
[5] = tested on: Ovis aries; assay: Evaluated for the anthelmintic activity against Oesophagostomum columbianum in sheep at dose of 2 mg/kg; value ranges from 51-75%; assay type: functional
[6] = tested on: Ovis aries; assay: Evaluated for the anthelmintic activity against Oesophagostomum columbianum in sheep at dose of 0.5 mg/kg; assay type: functional
[7] = tested on: Ovis aries; assay: Evaluated for the anthelmintic activity against Trichostrongylus axei in sheep at dose of 2 mg/kg; value ranges from 91-100%; assay type: functional
[8] = tested on: Ovis aries; assay: Evaluated for the anthelmintic activity against Cooperia species in sheep at dose of 2 mg/kg; value ranges from 91-100%; assay type: functional
[9] = tested on: Ovis aries; assay: Evaluated for the anthelmintic activity against Haemonchus contortus in sheep at dose of 2 mg/kg; value ranges from 91-100%; assay type: functional
[10] = tested on: Ovis aries; assay: Evaluated for the anthelmintic activity against Trichostrongylus axei in sheep at dose of 0.5 mg/kg; value ranges from 91-100%; assay type: functional
[11] = tested on: Ovis aries; assay: Evaluated for the anthelmintic activity against Trichostrongylus colubriformis in sheep at dose of 0.5 mg/kg; value ranges from 91-100%; assay type: functional
[12] = tested on: Ovis aries; assay: Evaluated for the anthelmintic activity against Cooperia species in sheep at dose of 0.5 mg/kg; value ranges from 91-100%; assay type: functional
[13] = tested on: Ovis aries; assay: Evaluated for the anthelmintic activity against Ostertagia circumcincta in sheep at dose of 2 mg/kg; value ranges from 91-100%; assay type: functional

With `CO[C@]1(C)CCN2CC34CC5(C(=O)Nc6c5ccc5c6OC=CC(C)(C)O5)C(C)(C)C3CC21C(=O)N4C` (stereo partly specified) the IC50 [1] was 70 µg/mL (≈ 138 µM).

Molecule `CCCCO[C@]1(C)CCN2CC34CC5(C(=O)Nc6c5ccc5c6OC=CC(C)(C)O5)C(C)(C)C3CC21C(=O)N4C` (stereo partly specified) has an IC50 [1] of 5 µg/mL (≈ 9.1 µM).

With `CNC(=O)N(C)C(=O)O[C@]1(C)CCN2CC34CC5(C(=O)Nc6c5ccc5c6OC=CC(C)(C)O5)C(C)(C)C3CC21C(=O)N4C` (stereo partly specified) the IC50 [1] was 60 µg/mL (≈ 98.7 µM).

Work on `C#CCO[C@]1(C)CCN2CC34CC5(C(=O)Nc6c5ccc5c6OC=CC(C)(C)O5)C(C)(C)C3CC21C(=O)N4C` (stereo partly specified) yielded an IC50 [1] of 7.5 µg/mL (≈ 14.1 µM).

`CCO[C@]1(C)CCN2CC34CC5(C(=O)Nc6c5ccc5c6OC=CC(C)(C)O5)C(C)(C)C3CC21C(=O)N4C` (stereo partly specified) gave an IC50 [1] of 2 µg/mL (≈ 3.83 µM).

In the case of `COCCOCO[C@]1(C)CCN2CC34CC5(C(=O)Nc6c5ccc5c6OC=CC(C)(C)O5)C(C)(C)C3CC21C(=O)N4C` (stereo partly specified), the IC50 [1] is reported as 20 µg/mL (≈ 34.4 µM).

For `C=CCO[C@]1(C)CCN2CC34CC5(C(=O)Nc6c5ccc5c6OC=CC(C)(C)O5)C(C)(C)C3CC21C(=O)N4C` (stereo partly specified), the Reduction [2] was 91%, the Reduction [3] was 91% and the Reduction [4] was 91%. It also gave an IC50 [1] of 15 µg/mL (≈ 28.1 µM), a Reduction [5] of 51% and a Reduction [6] of less than 50%. The Reduction [7] was 91%, the Reduction [8] was 91% and the Reduction [9] was 91%. For the same molecule, the Reduction [10] was 91%, the Reduction [11] was 91% and the Reduction [12] was 91%. The Reduction [13] was 91%.

`CN1C(=O)C23CC4C1(CN2CC[C@@]3(C)OCc1ccccc1)CC1(C(=O)Nc2c1ccc1c2OC=CC(C)(C)O1)C4(C)C` (stereo partly specified) was tested, and the IC50 [1] was 65 µg/mL (≈ 111 µM).

With `CN1C(=O)C23CC4C1(CN2CC[C@@]3(C)O[Si](C)(C)C)CC1(C(=O)Nc2c1ccc1c2OC=CC(C)(C)O1)C4(C)C` (stereo partly specified) the IC50 [1] was 3 µg/mL (≈ 5.3 µM).
